Drawing on the SangsterLogP compilation, this text covers logP and logD for 72 compounds.

As usually defined, the logP is a log measure of how a compound divides between an organic and an aqueous phase. What is called logD is the decadic logarithm of the distribution of all forms, ionised or not, between an organic phase and buffer at a given pH. The low end stands for lower lipophilicity, the high end for higher lipophilicity.

The first series can be described thus: method code SF-AS, from DOI: 10.1002/etc.5620180606.
Conditions: not given
Turning to `Nc1c(Oc2ccc(CN3CCCCCC3=O)cc2)cc(O)c2c1C(=O)c1ccccc1C2=O`, the logP was determined as 5.3.

The compound `Nc1c(Cl)c(Cl)c(N)c2c1C(=O)c1ccccc1C2=O` registered a logP of 4.56.

In the case of `N#CCN(CCO)c1ccc(N=Nc2nc3ccc([N+](=O)[O-])cc3s2)cc1`, the logP was found to be 4.08.

A further series is described as follows: method code SF-HPLC, from DOI: 10.1023/a:1015862319927, PMID: 2062808. The following applies: pH 7.4.
In the case of `O=C(OC[C@H]1O[C@@H](n2cc(I)c(=O)[nH]c2=O)C[C@@H]1O)c1ccc([N+](=O)[O-])cc1`, the logD is 1.24.

In turn, `CC(C)C(=O)OCC1OC(n2cc(I)c(=O)[nH]c2=O)C1O` (configuration not stated) displayed a logD of 0.83.

`COc1ccc(C(=O)OCC2OC(n3cc(I)c(=O)[nH]c3=O)CC2O)cc1` (configuration not stated) gave a logD of 1.38.

The next series is described as follows: method code SF-RC, from DOI: 10.1016/s0969-8051(02)00326-8, PMID: 12234587. The following applies: pH 7.4.
On to `CN(C)c1ccc(-c2cc3cc(I)ccc3o2)cc1`, for which the logD came to 2.35.

In turn, `Oc1ccc(-c2cc3cc(I)ccc3o2)cc1` showed a logD of 2.97.

For the compound `CN(C)c1ccc(-c2cc3ccc(I)cc3o2)cc1`, the logD was 2.12.

A further series is described as follows: method code SF-AS, from DOI: 10.1002/chin.198428254.
Conditions: not given
Compound `O=C(NCCN1CCN2Cc3[nH]c4ccccc4c3CC2C1)c1ccccc1` (configuration not stated) came in with a logP of 1.52.

In turn, `c1ccc2c3c([nH]c2c1)CN1CCNCC1C3` (configuration not stated) gave a logP of 0.36.

`O=C(NCCN1CCN2Cc3[nH]c4ccccc4c3CC2C1)c1ccccc1[N+](=O)[O-]` (configuration not stated) showed a logP of 1.8.

The nature of another series: method code SF-HPLC, from DOI: 10.1039/a702469j. The following applies: pH 7.0.
For `CCOP(=O)(OCC)C(C)(C)[N+]([O-])=Cc1ccncc1`, the logD worked out at 0.32.

`CCOP(=O)(OCC)C(C)(C)[N+]([O-])=Cc1cccnc1` came in with a logD of 0.41.

With `CCOP(=O)(OCC)C(C)(C)[N+]([O-])=Cc1cc[n+]([O-])cc1`, the logD was -0.68.

Assay in another series: not given
Conditions: not given
Regarding `CCOP(=O)(NC(C)CC)Oc1cc(C)ccc1[N+](=O)[O-]` (configuration not stated), the logP is 2.73.

In the case of `CCOP(=S)(NC(C)CC)Oc1cc(C)ccc1[N+](=O)[O-]` (configuration not stated), the logP is 4.62.

As to `CCCSP(=S)(OCC)Oc1ccc(SC)cc1` (configuration not stated), the logP worked out at 4.9.

Another series can be described thus: method code SF-HPLC, from DOI: 10.1002/jps.10072, PMID: 11920751. The following applies: pH 7.4.
On to `CC(=O)OCC(COC(C)=O)OCn1cnc2c(=O)[nH]c(N)nc21`, for which the logD was -0.78.

For `CCCCC(=O)OCC(COC(=O)CCCC)OCn1cnc2c(=O)[nH]c(N)nc21`, the logD came out at 0.83.

`CCCC(=O)OCC(CO)OCn1cnc2c(=O)[nH]c(N)nc21` (configuration not stated) registered a logD of -0.3.

A further series is described as follows: method code SF, from DOI: 10.1021/jm00237a002, PMID: 1133810. The following applies: pH 7.2.
`CCCCOc1cnc(NS(=O)(=O)c2ccccc2)nc1` yielded a logD of 1.41.

In the case of `CCCOc1cnc(NS(=O)(=O)c2ccccc2)nc1`, the logD turned out to be 1.14.

`CC(C)Oc1cnc(NS(=O)(=O)c2ccccc2)nc1` gave a logD of 0.86.

Assay in the next series: not given
Conditions: not given
This is another data set of the same source.
In the case of `Cc1c2ccccc2c(C)c2ccccc12`, the logP stood at 5.25.

`c1ccc2c(c1)Cc1cc3ccccc3cc1-2`: the logP was 5.75.

With `Cc1cccc2c1Cc1ccccc1-2`, the logP was found to be 4.97.

Another series can be described thus: method code SF-RC, from Godoy, N.; Valle, L.; Mena, P.; Gil, M. (1989). Synthesis, labeling and biodistribution of 99mTc-labelled bromoimino diacetic acids. Nucleotecnica, 9(17)25-32.
Conditions: not given
Take `Cc1ccc(Br)c(C)c1NC(=O)CN(CC(=O)O)CC(=O)O`: the logP worked out at 0.28.

For `Cc1cc(C)c(NC(=O)CN(CC(=O)O)CC(=O)O)c(C)c1Br`, the logP is -0.11.

As for `CCCCc1ccc(NC(=O)CN(CC(=O)O)CC(=O)O)cc1Br`, the logP is -0.1.

A short description of the next series: method code SF-GLC, from DOI: 10.1016/j.chemosphere.2013.04.065, PMID: 23732011.
Conditions: not given
Consider `C=CCOc1ccc(OCC=C)cc1`, for which the logP came out at 3.5.

For the compound `C=CCOc1ccc(OCCC)cc1`, the logP amounted to 2.4.

Take `C=CCOc1cccc(OCC=C)c1`: the logP amounted to 3.8.

A further series can be described thus: method code SF-AS, from DOI: 10.1016/0378-5173(84)90231-x.
Conditions: not given
In turn, `COc1ccc(C=[N+]([O-])C(C)(C)C)cc1` came in with a logP of 1.21.

In turn, `Cc1ccc(C=[N+]([O-])C(C)(C)C)cc1` gave a logP of 1.74.

Consider `CCc1ccc(C=[N+]([O-])C(C)(C)C)cc1`, for which the logP amounted to 2.19.

Assay in another series: not given
Conditions: not given
The source holds these as a separate data set.
`CCCCc1oc2ccccc2c1C(=O)c1ccc(O)cc1` registered a logP of 4.87.

Take `CCCCc1oc2ccccc2c1C(=O)c1cc(I)c(O)c(I)c1`: the logP worked out at 5.92.

`O=C(c1ccc(O)cc1)c1ccc(Cl)cc1` registered a logP of 4.

A further series in a line: method code SF-AS, from Dallet, P.; Dubost, J.; Colleter, J.; Audry, E.; Creuzet, M. (1985). QSAR in a series of alpha-adrenolitic molecules: optimization of physicochemical parameters. Eur J Med Chem, 20(6)551-557.
Conditions: not given
The compound `Cc1cc(OCCN(C)C)c(C(C)C)cc1OS(=O)(=O)CC12CCC(CC1=O)C2(C)C` (configuration not stated) had a logP of 4.37.

The compound `Cc1cc(OCCNCC2CC(=O)c3ccccc3C2=O)c(C(C)C)cc1O` (configuration not stated) displayed a logP of 4.25.

Compound `CC(=O)Oc1ccc(OCCN(C)C)cc1C` gave a logP of 1.64.

Assay in a further series: not given
To be noted: pH 7.4.
`CSC[S@](=O)C[C@H](CO)NC(=O)/C=C/c1c(C)[nH]c(=O)[nH]c1=O` came in with a logD of -1.71.

In turn, `CSC[S@](=O)C[C@H](C)NC(=O)/C=C/c1c(C)[nH]c(=O)[nH]c1=O` showed a logD of -0.7.

In turn, `CCCCCSCS(=O)CC(CO)NC(=O)/C=C/c1c(C)[nH]c(=O)[nH]c1=O` (configuration not stated) yielded a logD of 0.6.

Assay in the next series: not given
Conditions: not given
The source holds these as a separate data set.
`CNc1ccc(C(=O)OCCN(C)C)cc1` displayed a logP of 1.95.

`CCCCCNc1ccc(C(=O)OCCN(C)C)cc1` gave a logP of 4.14.

Compound `CCCNc1ccc(C(=O)OCCN(C)C)cc1` showed a logP of 3.15.

The next series is described as follows: method code SF-GLC, from DOI: 10.1016/0048-3575(76)90072-9.
Conditions: not given
In turn, `CCOC(=O)CN(C(=O)CCl)c1ccccc1-c1ccccc1` returned a logP of 3.37.

In turn, `CCOC(=O)CN(C(=O)CCl)c1ccccc1` returned a logP of 1.6.

Regarding `CCOC(=O)CN(C(=O)CCl)c1ccccc1OC(C)C`, the logP came out at 2.75.

The next series in a line: method code SF-AS, from DOI: 10.1248/cpb.32.5003, PMID: 6534549.
Conditions: not given
`Nc1ccccc1NC(=O)Cc1ccccc1` displayed a logP of 1.45.

The compound `COc1ccccc1NC(=O)Cc1ccccc1` registered a logP of 2.68.

For the compound `O=C(Cc1ccccc1)Nc1ccccc1[N+](=O)[O-]`, the logP is 2.73.

The nature of another series: method code SF-AS, from DOI: 10.1139/cjpp-75-12-1362, PMID: 9534947.
Conditions: not given
The compound `Cc1ncc(CO)c(/C=N/NC(=O)c2ccco2)c1O` returned a logP of 1.39.

The compound `Nc1ccc(C(=O)N/N=C/c2c(O)ccc3ccccc23)cc1` yielded a logP of 3.04.

The compound `O=C(N/N=C/c1c(O)ccc2ccccc12)c1cccc(F)c1` came in with a logP of 4.06.

A further series in a line: method code SF-HPLC, from DOI: 10.1016/0378-5173(89)90028-8.
Conditions: not given
For the compound `CCN(CC)C(=O)COC(=O)c1cn(CC)c2nc(C)ccc2c1=O`, the logP stood at 1.43.

Consider `CCCC(=O)OCOC(=O)c1cn(CC)c2nc(C)ccc2c1=O`, for which the logP turned out to be 2.2.

`CCn1cc(C(=O)OC)c(=O)c2ccc(C)nc21` came in with a log partition coefficient (logP) of 1.23.

The nature of another series: method code SF-AS, from DOI: 10.1021/jm00296a014, PMID: 5418493.
Conditions: not given
In turn, `O=C(O)C1c2ccccc2-c2ccccc21` returned a logP of 2.8.

As for `O=C(O)C1c2ccccc2Sc2ccccc21`, the logP amounted to 2.57.

In the case of `O=C(O)C1c2ccccc2Oc2ccccc21`, the logP was 2.23.

Assay in the next series: not given
Conditions: not given
This is another data set of the same source.
Take `Cc1ccc(Cl)c(Nc2ccccc2C(=O)O)c1Cl`: the logP came out at 5.9.

`CCN(CC)Cc1cc(Nc2ccnc3cc(Cl)ccc23)ccc1O` registered a logP of 4.2.

In turn, `COc1ccc(Cc2nccc3cc(OC)c(OC)cc23)cc1OC` displayed a logP of 2.95.

The nature of another series: method code SF-AS, from DOI: 10.1016/0045-6535(95)00267-c.
Conditions: not given
The compound `CC1CCCCC1NC(=O)Nc1ccccc1` (configuration not stated) returned a logP of 3.09.

On to `CCCCN(C)C(=O)Nc1ccc(Cl)c(Cl)c1`, for which the logP is 4.1.

In turn, `COc1ccc(Oc2ccc(NC(=O)N(C)C)cc2)cc1` returned a logP of 2.54.

Another series in a line: method code SF-HPLC, from DOI: 10.1016/j.ejpb.2013.06.022, PMID: 23958327. The following applies: pH 6.0.
Turning to `CCOC(=O)c1ccc(C#Cc2ccc3c(c2)C(C)(C)CCS3)nc1`, the logD was determined as 5.6.

`Cc1cc(C2CCCCC2)n(O)c(=O)c1` came in with a logD of 2.3.

`CCOC(=O)O[C@]1(C(=O)COC(=O)CC)CC[C@H]2[C@@H]3CCC4=CC(=O)C=C[C@]4(C)[C@H]3[C@@H](O)C[C@@]21C` yielded a logD of 2.9.
